Several values for one entry are separate records, joined by “and”; a condition that tells them apart may be missing. Identical values can stand only once. Inconclusive results and toxic doses are left out.
Test system: BDF1 mice, L1210 6-MP/6-TG resistant leukemia ip, survival T/C
Assay: NCI In Vivo Anticancer Drug Screen. Data for tumor model L1210 Leukemia resistant to 6-MP and 6-Thioguanine; NSC 755, NSC 752 (intraperitoneal) in B6D2F1 (BDF1) mice
Details: endpoint: mean survival time, higher = longer survival
Protocol: The antitumor activity of compounds was measured in mice bearing transplantable tumors. Survival or tumor size were measured and the results are expressed as the measurement made in the treated group (T) divided by the measurement made in the vehicle treated control group (C). The tumor model used in this assay is L1210 Leukemia resistant to 6-MP and 6-Thioguanine; NSC 755, NSC 752 (intraperitoneal) in B6D2F1 (BDF1) mice

[1] = dose: 25.0 mg/kg/injection, schedule: Q01DX Z (ip), vehicle: carboxymethylcellulose (CMC)
[2] = dose: 100.0 mg/kg/injection, schedule: Q01DX Z (ip), vehicle: carboxymethylcellulose (CMC)

CC(=O)Nc1ccc2nc3ccc(NC(C)=O)cc3[n+](-c3ccccc3)c2c1
T/C (dose: 1.25 mg/kg/injection, schedule: Q01DX Z (ip), vehicle: carboxymethylcellulose (CMC)): 95 % of control
T/C (dose: 2.5 mg/kg/injection, schedule: Q01DX Z (ip), vehicle: carboxymethylcellulose (CMC)): 103 % of control
T/C (dose: 7.5 mg/kg/injection, schedule: Q01DX Z (ip), vehicle: carboxymethylcellulose (CMC)): 154 % of control
T/C [1]: 202 % of control
T/C (dose: 50.0 mg/kg/injection, schedule: Q01DX Z (ip), vehicle: carboxymethylcellulose (CMC)): 176 % of control
T/C (dose: 75.0 mg/kg/injection, schedule: Q01DX Z (ip), vehicle: carboxymethylcellulose (CMC)): 180 % of control
T/C [2]: 121 % of control
T/C (dose: 200.0 mg/kg/injection, schedule: Q01DX Z (ip), vehicle: carboxymethylcellulose (CMC)): 150 % of control
T/C (dose: 300.0 mg/kg/injection, schedule: Q01DX Z (ip), vehicle: carboxymethylcellulose (CMC)): 122 % of control

CCCSc1ncnc2nc[nH]c12
T/C (dose: 43.5 mg/kg/injection, schedule: Q01DX Z (ip), vehicle: other): 98 % of control
T/C (dose: 87.0 mg/kg/injection, schedule: Q01DX Z (ip), vehicle: other): 105 % of control
T/C (dose: 175.0 mg/kg/injection, schedule: Q01DX Z (ip), vehicle: other): 91 % of control

CN(C)[C@@H]1C(=O)C(C(=O)NCNc2nc3n[nH]nc3c(=O)[nH]2)=C(O)[C@@]2(O)C(=O)C3=C(O)c4c(O)cccc4[C@@](C)(O)[C@H]3C[C@@H]12
T/C (dose: 50.0 mg/kg/injection, schedule: Q01DX009 (ip), vehicle: saline): 100 % of control
T/C (dose: 100.0 mg/kg/injection, schedule: Q01DX009 (ip), vehicle: saline): 104 % of control
T/C (dose: 200.0 mg/kg/injection, schedule: Q01DX009 (ip), vehicle: saline): 100 % of control
T/C (dose: 400.0 mg/kg/injection, schedule: Q01DX009 (ip), vehicle: saline): 100 % of control

O=C(Nc1ccc(C2=NCCN2)cc1)c1cccc(C(=O)Nc2ccc(C3=NCCN3)cc2)c1
T/C (dose: 2.5 mg/kg/injection, schedule: Q01DX Z (ip), vehicle: water): 110 % of control
T/C (dose: 10.0 mg/kg/injection, schedule: Q01DX Z (ip), vehicle: water): 300 % of control
T/C (dose: 20.0 mg/kg/injection, schedule: Q01DX Z (ip), vehicle: water): 187 % of control

c1nc(Sc2ncnc3nc[nH]c23)c2[nH]cnc2n1
T/C (dose: 37.0 mg/kg/injection, schedule: Q01DX009 (ip), vehicle: other): 100 % of control
T/C (dose: 75.0 mg/kg/injection, schedule: Q01DX009 (ip), vehicle: other): 107 % of control
T/C (dose: 150.0 mg/kg/injection, schedule: Q01DX009 (ip), vehicle: other): 95 % of control
T/C (dose: 300.0 mg/kg/injection, schedule: Q01DX009 (ip), vehicle: other): 91 % of control

O[C@H](CN1CC1)[C@@H](O)CN1CC1
T/C (dose: 0.25 mg/kg/injection, schedule: Q01DX Z (ip), vehicle: saline): 253 % of control
T/C (dose: 1.0 mg/kg/injection, schedule: Q01DX Z (ip), vehicle: saline): 91 % of control
T/C (dose: 90.0 micrograms/kg/injection, schedule: Q01DX Z (ip), vehicle: saline): 156 % of control
T/C (dose: 180.0 micrograms/kg/injection, schedule: Q01DX Z (ip), vehicle: saline): 121 % of control
T/C (dose: 370.0 micrograms/kg/injection, schedule: Q01DX Z (ip), vehicle: saline): 120 % of control

O=c1[nH]c(=O)n(C2CC(O)C(CO)O2)cc1Br (centres undefined)
T/C (dose: 20.0 mg/kg/injection, schedule: Q01DX Z (ip), vehicle: carboxymethylcellulose (CMC)): 112 % of control
T/C (dose: 30.0 mg/kg/injection, schedule: Q01DX Z (ip), vehicle: carboxymethylcellulose (CMC)): 114 % of control
T/C (dose: 40.0 mg/kg/injection, schedule: Q01DX Z (ip), vehicle: carboxymethylcellulose (CMC)): 102 % of control
T/C (dose: 60.0 mg/kg/injection, schedule: Q01DX Z (ip), vehicle: carboxymethylcellulose (CMC)): 98 % of control
T/C (dose: 93.0 mg/kg/injection, schedule: Q01DX Z (ip), vehicle: carboxymethylcellulose (CMC)): 117 % of control
T/C (dose: 187.0 mg/kg/injection, schedule: Q01DX Z (ip), vehicle: carboxymethylcellulose (CMC)): 115 % of control
T/C (dose: 375.0 mg/kg/injection, schedule: Q01DX Z (ip), vehicle: carboxymethylcellulose (CMC)): 112 % of control
T/C (dose: 500.0 mg/kg/injection, schedule: Q01DX Z (ip), vehicle: carboxymethylcellulose (CMC)): 109 % of control

CSc1ncnc2nc[nH]c12
T/C (dose: 30.0 mg/kg/injection, schedule: Q01DX015 (ip), vehicle: carboxymethylcellulose (CMC)): 89 % of control
T/C (dose: 31.0 mg/kg/injection, schedule: Q01DX Z (ip), vehicle: carboxymethylcellulose (CMC)): 97 % of control
T/C (dose: 45.0 mg/kg/injection, schedule: Q01DX015 (ip), vehicle: carboxymethylcellulose (CMC)): 103 % of control
T/C (dose: 60.0 mg/kg/injection, schedule: Q01DX015 (ip), vehicle: carboxymethylcellulose (CMC)): 88 % of control
T/C (dose: 62.5 mg/kg/injection, schedule: Q01DX Z (ip), vehicle: carboxymethylcellulose (CMC)): 92 % of control
T/C (dose: 75.0 mg/kg/injection, schedule: Q01DX015 (ip), vehicle: carboxymethylcellulose (CMC)): 89 % of control
T/C (dose: 90.0 mg/kg/injection, schedule: Q01DX015 (ip), vehicle: carboxymethylcellulose (CMC)): 86 % of control
T/C (dose: 120.0 mg/kg/injection, schedule: Q01DX001 (ip), vehicle: carboxymethylcellulose (CMC)): 95 % of control and 104 % of control
T/C (dose: 125.0 mg/kg/injection, schedule: Q01DX Z (ip), vehicle: carboxymethylcellulose (CMC)): 88 % of control
T/C (dose: 180.0 mg/kg/injection, schedule: Q01DX001 (ip), vehicle: carboxymethylcellulose (CMC)): 92 % of control
T/C (dose: 270.0 mg/kg/injection, schedule: Q01DX001 (ip), vehicle: carboxymethylcellulose (CMC)): 94 % of control

COCCCNS(=O)(=O)c1ncnc2nc[nH]c12
T/C [1]: 92 % of control
T/C [2]: 90 % of control

Source: PubChem BioAssay AID308 (DTP/NCI, 2004)
